Consider 12 compounds from patent publication US12023336B2, “Antiviral drug compounds and composition thereof” (priority 2018, dated 2024).

Broadly, the CC50 is the concentration at which the toxic effect on the cells reaches its halfway point. Low values mean harm at low concentration, high ones better tolerance by the cells. For orientation: IC50 means the point on the concentration scale where inhibition reaches its midpoint. What is called % Inhibition is how much of the control response was suppressed. Higher therefore signals a strong effect.

The target of one series is T1, HIV-1 protease (Human immunodeficiency virus type 1 group M subtype B, UniProt P04585).
T1 construct: HIV-1 protease enzyme; purchased Biovision, USA
The series can be described thus: Cell free assay for HIV-1 Protease activity. It counts as biochemical. Particulars: 100 nM. On the procedure: (§1) MTX-HYD (100 nM) was tested on viral enzymes Reverse Transcriptase (a), Integrase (b) and Protease (c) in an in vitro cell free assay system. Nevirapine (NVP) (500 nM), Raltegravir (RLT) (1 μM), and Indinavir (IND) (500 nM) were used as the control inhibitors of RT, IN, and PR respectively. Untreated wells (UNT) were considered as negative controls. […] 72-hours post-infection virus production was determined in supernatant by p24 antigen capture ELISA (n=3).
Effect of MTX-HYD on HIV-1 Protease enzyme was determined using HIV-1 Protease Activity Assay Kit, Fluorometric (Biovision, USA) according to manufacturer's protocol. Briefly, in a single step reaction, HIV-1 protease enzyme was diluted in reaction buffer and 10 nmol/well was loaded in 96 well plate in presence or absence of MTX-HYD (100 nM). Indinavir (IND) (500 nM) treated wells were taken as positive control and untreated wells were considered as negative control. 15-minutes post addition, Fluorescence was measured using Molecular Devices M5 at Ex/Em=330/450 nm (FIG. 6).

Series [1] deals with HIV-1NL4.3. Kind of series: microbe, parasite or virus in culture. The note with it: 10 μM, HIV-1NL4.3 0.1 MOI, TZM-bl cells, luminescence 48 h; for inhibition at 10 µM: Human immunodeficiency virus 1, read-out: % Inhibition at 10 μM Concentration. It counts as cell-based. The method, then:
TZM-bl cells were seeded at the density of 12,000-15,000 cells/well of 96 well plate with 100 μL DMEM (with 10% FBS) in each well. 12-hours post seeding, the media was replaced with fresh DMEM containing HTV-1NL4.3 at 0.1 MOI and cells were treated with different molecules independently at 10 μM working concentration. Cells were incubated in humidified CO2 incubator for 4-hours. After incubation, the media was replaced and cells were washed twice with incomplete DMEM and 100 μL of complete DMEM was added in each wells along with the molecules of interest and incubated at 37° C. in humidified CO2 incubator. 48-hours post incubation, the media was removed and cells were washed twice with 100 μL of 1×PBS. After washing, cells were lysed using cell culture lysis reagent and Steady-Glo substrate was added at 1:1 ration in each well. Luminescence was measured using Molecular Devices M5 (Table 2). % Inhibition was calculated using following formula and plotted.
[formula] (RLU=Relative Luminescence Unit)

Series [2] is described as follows: MTT cytotoxicity in different cell types (CEM-GFP, Jurkat J6, U937, hPBMCs). It counts as cell-based. The note with it: human; all the cell types tested (CEM-GFP, Jurkat J6, U937, hPBMCs). The source says: FIG. 2. depicts that MTX-HYD has similar cytotoxicity profile in different cell types. […] Untreated and DMSO treated cells were taken as controls.
In series [3] the test system is HIV-1NL4.3. It counts as cell-based. The note with it: for inhibition of replication of HIV-1NL4.3: CEM-GFP (FIG. 9); for IC50 / TI (Therapeutic index = CC50/IC50) / therapeutic index compared with MTX-HYD: CEM-GFP cells; for IC50: HIV-1NL4.3 0.5 MOI, p24 ELISA 72 h post infection; for therapeutic index compared with MTX-HYD: HIV-1NL4.3. On the procedure:
Cells were then treated with molecules at different concentrations.
A general note: An ELISA detects its analyte on a solid surface through an enzyme-linked reagent.

In series [4] the target is T2, HIV-1 reverse transcriptase (Human immunodeficiency virus type 1 group M subtype B, UniProt P04585).
T2 construct: recombinant HIV-1 reverse transcriptase enzyme; purchased Roche, Germany
Kind of series: RNA dependent DNA polymerase activity assay of HIV-1 RT (RDDP assay). The series is classed as biochemical. Particulars: 100 nM; cell free. The method, then: as §1
Effect of MTX-HYD and MTX on RNA dependent DNA polymerase activity of HIV-1 RT enzyme was tested with HIV-1 reverse transcriptase colorimetric assay kit (Roche, Germany) according to manufacturer's protocol. Briefly, 0.5 ng of recombinant HIV-1 reverse transcriptase enzyme in reaction buffer in presence or absence of MTX-HYD were incubated at room temperature for 5-10 min. Nevirapine (500 nM) treated wells were taken as positive control whereas untreated wells were taken as negative control and DMSO treated wells were taken as vehicle control. The reaction mixture containing Poly rA/OligodT (template/primers) and biotin or digoxigenin labelled dUTP nucleotide mixture was added to initiate the reverse transcription at 37° C. for 12-16 hours. […] ABTS substrate was then added to observe the colour reaction, which was read at 405 nm.

The test system of series [5] is different isolates of HIV-1. Kind of series: Anti-HIV activity against different isolates of HIV-1 in CEM-GFP cells and hPBMCs, p24 ELISA. It counts as cell-based. The method, then: (§2) Cells were then treated with molecules at different concentrations. Untreated cells were taken as negative control and DMSO treated cells were taken as vehicle control.
A further series deals with NF-kB pathway. Kind of series: Immunoblotting of IkB phosphorylation and p65 in HIV-1NL4.3 infected CEM-GFP cells. The series is classed as cell-based. Particulars: 100 nM, 24, 48, 72 h post infection.
The target of a further series is T3, HIV-1 integrase (Human immunodeficiency virus type 1 group M subtype B, UniProt P04585).
T3 construct: HIV-1 integrase enzyme; purchased XpressBio, USA
Kind of series: Cell free assay for HIV-1 Integrase activity. Particulars: 100 nM. The series is classed as biochemical. On the procedure: as §1
MTX-HYD was tested for its effect, if any, on HIV-1 Integrase enzyme using HIV-1 integrase assay kit (XpressBio, USA) according to manufacturer's protocol. Briefly, biotin coated 5′ Donor Strand (DS) was loaded on to streptavidin coated wells and incubated at 37° C. 30-minutes post incubation, wells were washed and unattached DS was removed. After washing, HIV-1 integrase enzyme and Transfer Strand (TS) were added to the wells in presence of MTX-HYD and incubated at 37° C. Raltegravir treated wells were taken as positive controls whereas untreated wells were taken as negative control and DMSO treated wells were taken as vehicle control. 30-minutes post incubation, wells were washed and 100 μL/well TMB substrate was added and incubated for […] at room temperature. 100 μL/well TMB stop solution was added and absorbance was measured at 450 nm.

The next series concerns CEM-GFP cells. The series can be described thus: MTT cell viability assay in CEM-GFP cells. It counts as cell-based. The note with it: concentration at which cell viability was 50%. The method, then: (a-b) CEM-GFP cells were treated with different concentrations of MTX-HYD and MTX and cytotoxicity was determined by MTT cell viability assay. […] (c-d) CEM-GFP cells were infected with 0.5 MOI (Multiplicity of infection) of HIV-1NL4.3 virus in presence of MTX-HYD or MTX. 72-hours post infection supernatant was collected and virus production was determined by p24 antigen capture ELISA.
(§3) Cytotoxicity of MTX-HYD and MTX and their analogues was determined by MTT cell proliferation assay kit, (Roche, Germany) as described earlier. Briefly, cells were seeded at the density of 25,000 cells/well in 96 well plate containing 100 μL of RPMI. Molecules at different concentration was added to the media and incubated in humidified CO2 incubator. Untreated cells were taken as negative control and DMSO treated cells were taken as vehicle control. 48-hours post incubation, 10 μL of MTT (5 mg/mL) was added in each well in dark and incubated at 37° C. for the formation of formazan crystals. 4-hours post incubation, the crystals were dissolved using 100 μL isopropanol and the absorbance was read at 570 nm.
On the technique in general: Tetrazolium dyes change colour on reduction, which living cells bring about.

Series [6] concerns HIV-1NL4.3. The method, then: 72-hours post infection supernatant was collected and virus production was determined by p24 antigen capture ELISA.
as §3, §2

Where a name gives a salt, the structure may show the parent alone.

Experimental for NF-kB pathway: (a) CEM-GFP cells were infected with 0.5 MOI of HIV-1NL4.3 in presence or absence of MTX-HYD (100 nM). Cells were harvested at different time points (24 h, 48 h and 72 h) post-infection. Phosphorylation of IxB was analysed by immunoblotting. (c) CEM-GFP cells were infected with 0.5MOI of HIV-1NL4.3 in presence or absence of MTX-HYD (100 nM) and nuclear cytoplasmic fractions were prepared using NE-PER nuclear-cytoplasmic fractionation kit. p65 levels in both cytoplasm and nucleus were analyzed by immunoblotting. (b and d) Densitometric analysis of immunoblots using QuantityOne software (n=3).

On to `CN(Cc1cnc2nc(N)nc(N)c2n1)c1ccc(C(=O)N[C@@H](CCC(=O)O)C(=O)O)cc1` [Methotrexate Hydrate], for which, on HIV-1 protease, the “effect on Protease” value is “does not target viral enzymes”. The inhibition at 10 µM in the series on HIV-1NL4.3 [1] is 98.5%. In series [2], this compound showed a CC50 at 48 h of 50 to 75 µM. In addition, the “stage of virus life cycle at which it acts” value with HIV-1NL4.3 [3] (100 nM, treated at different stages of virus infection, CEM-GFP) is given as “works at an early stage of the life cycle”. The “anti-HIV potential better than MTX” value in the series on HIV-1NL4.3 [3] (versus MTX (FIG. 1)) was around 10 fold. The “effect on Reverse Transcriptase” value in [4] is listed as “does not target viral enzymes”. Further, the “anti-HIV activity across virus isolates and viral loads” value in [5] (0.5 MOI of different isolates, 0.01, 0.1 and 1 MOI of HIV-1NL4.3) is “not virus isolate and viral load dependent phenomena”. Besides, the IkB phosphorylation result in the series with NF-kB pathway was “may inhibit IkB phosphorylation”. On HIV-1 integrase, the “effect on Integrase” value is recorded as “does not target viral enzymes”.

Take `[2H]C([2H])([2H])N(Cc1cnc2nc(N)nc(N)c2n1)c1ccc(C(=O)N[C@@H](CCC(=O)O)C(=O)O)cc1` [MTX-methyl-d3]: in the series on HIV-1NL4.3 [3] (100 nM), the “inhibition of replication of HIV-1NL4.3” value is given as “inhibits replication of HIV-1NL4.3”.

For `COC(=O)CCC(NC(=O)c1ccc(N(C)Cc2cnc3nc(N)nc(N)c3n2)cc1)C(=O)OC` (centres unmarked) [MTX-methyl-d3-Dimethyl Ester, Methotrexate-methyl-d3-Dimethyl ester], in the series with CEM-GFP cells, the CC50 was 47.3 ± 1.51 µM. Half-maximal inhibition in the series on HIV-1NL4.3 [3] (IC50) required 0.0099 ± 0.00151 µM.

`COC(=O)CC[C@H](NC(=O)c1ccc(N(C)Cc2cnc3nc(N)nc(N)c3n2)cc1)C(=O)OC` [MTX Dimethyl Ester] yielded a CC50 in the series on CEM-GFP cells of 54.3 ± 3.78 µM. For the same compound, the “inhibition of replication of HIV-1NL4.3” value in the series with HIV-1NL4.3 [3] (100 nM) is recorded as “inhibits replication of HIV-1NL4.3”. For the same compound, in the series on HIV-1NL4.3 [3], the “TI (Therapeutic index = CC50/IC50)” value worked out at 1675.3, the “therapeutic index compared with MTX-HYD” value is on record as “higher therapeutic index than MTX-HYD” and half-maximal inhibition (IC50) required 0.0324 ± 0.00087 µM.

In the series with CEM-GFP cells, `CN(Cc1cnc2nc(N)nc(N)c2n1)c1ccc(C(=O)N[C@@H](CCC(=O)O)C(=O)O)cc1` [MTX-methyl-d3] gave a CC50 of 46.4 ± 1.08 µM. Further, in the series with HIV-1NL4.3 [3], the half-inhibitory concentration (IC50) was 0.0421 ± 0.00384 µM.

In the series with CEM-GFP cells, `CN(Cc1cnc2nc(N)nc(N)c2n1)c1ccc(C(=O)N[C@@H](CCC(=O)N[C@@H](CCC(=O)N[C@@H](CCC(=O)N[C@@H](CCC(=O)N[C@@H](CCC(=O)N[C@@H](CCC(=O)N[C@@H](CCC(=O)O)C(=O)O)C(=O)O)C(=O)O)C(=O)O)C(=O)O)C(=O)O)C(=O)O)cc1` [MTX heptaglutamate] yielded a CC50 of 39.9 ± 1 µM. In the series on HIV-1NL4.3 [3], the “TI (Therapeutic index = CC50/IC50)” value was found to be 541.87 and 0.0737 ± 0.00165 µM corresponded to half-maximal inhibition (IC50).

For the compound MTX-d3 heptaglutamate, the half-maximal cytotoxic concentration (CC50) in the series with CEM-GFP cells came out at 40.5 ± 3.43 µM. This compound came in with a half-maximal inhibitory concentration (IC50) in the series with HIV-1NL4.3 [3] of 0.0779 ± 0.00242 µM.

As to `[2H]C([2H])([2H])N(Cc1cnc2nc(N)nc(N)c2n1)c1ccc(C(=O)NC(CCC(=O)OC)C(=O)OC)cc1` (centres unmarked) [MTX-methyl-d3-Dimethyl Ester, Methotrexate-methyl-d3-Dimethyl ester], the “inhibition of replication of HIV-1NL4.3” value with HIV-1NL4.3 [3] (100 nM) was “inhibits replication of HIV-1NL4.3”. Moreover, in the series on HIV-1NL4.3 [3], the “TI (Therapeutic index = CC50/IC50)” value was found to be 4781.81 and the “therapeutic index compared with MTX-HYD” value is listed as “higher therapeutic index than MTX-HYD”. Moreover, the “anti-HIV activity across virus isolates” value in [5] (25 nM, 0.5 MOI of different isolates) is “not virus isolate specific phenomena”. Also, the “Therapeutic Index compared with MTX-HYD, other virus isolates” value in [5] (HIV-1IndieC, HIV-1IIIB, HIV-1ADA, HIV-189.6) is recorded as “higher Therapeutic Index (TI) than Methotrexate Hydrate (MTX-HYD)”. Also, the “therapeutic index (TI) in hPBMCs” value with HIV-1NL4.3 [6] (HIV-1NL4.3 0.5 MOI) was “significantly high therapeutic index (TI)”. Also, in the series on HIV-1NL4.3 [6] (hPBMCs), the “inhibition of HIV-1NL4.3 replication in primary cells” value was “with high efficiency”.

Take `Cl.NCCCC(N)(C(=O)O)C(F)F` (racemic) [DL-alpha-Difluoromethylornithine hydrochloride]: in the series on HIV-1NL4.3 [1], the “% Inhibition at 10 μM Concentration” value was 97.06%.

With `CNCCC=C1c2ccccc2CCc2ccccc21` [Nortriptyline hydrochloride], in the series on HIV-1NL4.3 [1], the inhibition at 10 µM was 99.2%.

Regarding `O=Nc1ccc2oc(=O)ccc2c1` [6-Nitroso-1,2-benzopyrone], in the series on HIV-1NL4.3 [1], the “% Inhibition at 10 μM Concentration” value worked out at 99.15%.

`CC(=O)O[C@]1(C(C)=O)CC[C@H]2[C@@H]3C=C(Cl)C4=CC(=O)[C@@H]5C[C@@H]5[C@]4(C)[C@H]3CC[C@@]21C` [Cyproterone acetate]: in the series on HIV-1NL4.3 [1], the inhibition at 10 µM amounted to 98.5%.
